Measured values published in patent US4709032A, “Isoquinolinesulfonamide derivatives” (Asahi Kasei Kogyo Kabushiki Kaisha, priority 1982, dated 1987).

Tests used:
Acute toxicity in rats = details: in vivo, male rat, dihydrochloride
Protocol: (§1) The acute toxicity of the N-(2-guanidinoethyl)-5-isoquinolinesulfonamide dihydrochloride was measured by giving male ddY-strain mouse and rat an intravenous administration and an oral administration.

Acute toxicity in mice = details: in vivo, male mouse, dihydrochloride
Protocol: as §1
The acute toxicity of the hydrochloric acid salt of other compounds was measured by giving male ddY-strain mice an intravenous administration.

`Cl.Cl.N=C(N)NCCNS(=O)(=O)c1cccc2cnccc12` [N-(2-guanidinoethyl)-5-isoquinolinesulfonamide dihydrochloride] showed an LD50 (Acute toxicity in rats; intravenous administration) of 64 mg/kg, an LD50 (Acute toxicity in rats; oral administration) of 1160 mg/kg and an LD50 (Acute toxicity in mice; intravenous administration) of 59 mg/kg. The LD50 (Acute toxicity in mice; oral administration) was 1480 mg/kg.
